In ChEMBL document CHEMBL3868615, “Decahydrobenzoquinolin-5-one sigma receptor ligands: Divergent development of both sigma 1 and sigma 2 receptor selective examples” (Bioorg Med Chem Lett, 2016):

Experiments:
[1] = target: T1, Kappa-type opioid receptor (Homo sapiens, UniProt P41145); test: Displacement of [3H]U69593 from KOR (unknown origin) expressed in HEKT cells measured after 90 mins by microbeta scintillation counting method; format: cell-based
[2] = target: Sigma non-opioid intracellular receptor 1 (Cavia porcellus, UniProt Q60492); test: Displacement of [3H]pentazocine from guinea pig sigma1 receptor measured after 90 mins by microbeta scintillation counting method
Chain of Sigma non-opioid intracellular receptor 1 (Q60492 whole entry): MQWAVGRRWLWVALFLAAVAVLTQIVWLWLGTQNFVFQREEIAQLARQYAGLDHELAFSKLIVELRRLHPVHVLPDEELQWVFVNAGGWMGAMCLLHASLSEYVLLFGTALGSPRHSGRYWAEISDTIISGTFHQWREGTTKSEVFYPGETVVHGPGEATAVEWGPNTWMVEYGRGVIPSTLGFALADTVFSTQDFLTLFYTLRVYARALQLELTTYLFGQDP

[3] = Displacement of [3H]DTG from sigma2 receptor in rat PC12 cells measured after 90 mins by microbeta scintillation counting method; format: cell-based; conditions: pc-12
[4] = target: T2, 5-hydroxytryptamine receptor 2B (Homo sapiens, UniProt P41595); test: Displacement of [3H]LSD from human 5-HT2B receptor expressed in HEK cells measured after 90 mins by microbeta scintillation counting method; format: cell-based, HEK293
T2 sequence (P41595 whole entry): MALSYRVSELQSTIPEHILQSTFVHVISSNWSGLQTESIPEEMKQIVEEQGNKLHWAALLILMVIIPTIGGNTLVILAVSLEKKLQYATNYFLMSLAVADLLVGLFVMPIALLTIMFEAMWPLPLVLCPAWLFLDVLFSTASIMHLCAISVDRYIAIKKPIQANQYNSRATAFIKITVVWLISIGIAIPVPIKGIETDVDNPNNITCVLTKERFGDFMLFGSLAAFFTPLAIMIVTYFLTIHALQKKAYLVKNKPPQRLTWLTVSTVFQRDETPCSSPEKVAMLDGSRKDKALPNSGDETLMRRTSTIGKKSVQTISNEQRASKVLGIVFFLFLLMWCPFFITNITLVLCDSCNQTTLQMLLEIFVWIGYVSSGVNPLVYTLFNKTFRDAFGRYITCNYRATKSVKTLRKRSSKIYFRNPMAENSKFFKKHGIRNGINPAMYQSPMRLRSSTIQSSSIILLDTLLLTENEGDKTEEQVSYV

[5] = target: Alpha-2C adrenergic receptor (Homo sapiens, UniProt P18825); test: Displacement of [3H]Rauwolscine from human Alpha2C receptor expressed in MDCK cells measured after 90 mins by microbeta scintillation counting method; format: cell-based
Chain of Alpha-2C adrenergic receptor (P18825 whole entry): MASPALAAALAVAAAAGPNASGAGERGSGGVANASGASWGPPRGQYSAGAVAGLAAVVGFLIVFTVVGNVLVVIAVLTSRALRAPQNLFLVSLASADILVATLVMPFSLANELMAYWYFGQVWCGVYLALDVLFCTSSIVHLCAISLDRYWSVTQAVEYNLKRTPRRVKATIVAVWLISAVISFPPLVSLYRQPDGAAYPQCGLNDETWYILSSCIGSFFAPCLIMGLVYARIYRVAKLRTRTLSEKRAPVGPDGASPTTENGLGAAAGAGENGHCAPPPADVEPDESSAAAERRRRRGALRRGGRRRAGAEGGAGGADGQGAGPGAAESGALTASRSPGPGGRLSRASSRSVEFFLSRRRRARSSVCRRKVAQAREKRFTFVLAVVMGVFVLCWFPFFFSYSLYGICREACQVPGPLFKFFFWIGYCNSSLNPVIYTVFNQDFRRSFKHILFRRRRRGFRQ

D(2) dopamine receptor = D(2) dopamine receptor (Homo sapiens, UniProt P14416); test: Displacement of [3H]N-methylspiperone from human D2 receptor expressed in fibroblast cells measured after 90 mins by microbeta scintillation counting method; format: cell-based
Chain of D(2) dopamine receptor (P14416 whole entry): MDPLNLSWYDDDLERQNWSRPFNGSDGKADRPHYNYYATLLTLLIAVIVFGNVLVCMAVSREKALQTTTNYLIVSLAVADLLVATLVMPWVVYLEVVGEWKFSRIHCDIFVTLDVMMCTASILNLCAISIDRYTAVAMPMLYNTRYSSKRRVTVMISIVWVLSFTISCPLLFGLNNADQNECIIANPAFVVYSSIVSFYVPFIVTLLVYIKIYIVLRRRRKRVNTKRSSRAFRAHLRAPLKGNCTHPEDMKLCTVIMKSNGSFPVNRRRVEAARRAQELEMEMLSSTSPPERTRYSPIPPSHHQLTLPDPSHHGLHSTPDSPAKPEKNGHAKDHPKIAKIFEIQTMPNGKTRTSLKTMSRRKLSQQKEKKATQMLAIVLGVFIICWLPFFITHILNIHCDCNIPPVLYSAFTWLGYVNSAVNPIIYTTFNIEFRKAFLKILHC

D(3) dopamine receptor = D(3) dopamine receptor (Homo sapiens, UniProt P35462); test: Displacement of [3H]N-methylspiperone from D3 receptor (unknown origin) expressed in HEK-T cells measured after 90 mins by microbeta scintillation counting method; format: cell-based
Chain of D(3) dopamine receptor (P35462 whole entry): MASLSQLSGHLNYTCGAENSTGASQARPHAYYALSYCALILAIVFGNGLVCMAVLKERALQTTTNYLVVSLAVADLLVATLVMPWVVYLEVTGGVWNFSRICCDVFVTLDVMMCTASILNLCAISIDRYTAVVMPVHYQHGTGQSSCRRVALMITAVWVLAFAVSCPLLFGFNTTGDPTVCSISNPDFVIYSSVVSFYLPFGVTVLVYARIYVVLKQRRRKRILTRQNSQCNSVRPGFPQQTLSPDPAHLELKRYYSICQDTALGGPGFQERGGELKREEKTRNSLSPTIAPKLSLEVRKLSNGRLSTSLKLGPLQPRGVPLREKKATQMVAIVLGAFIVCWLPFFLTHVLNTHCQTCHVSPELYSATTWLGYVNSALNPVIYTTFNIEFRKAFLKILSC

D(4) dopamine receptor = D(4) dopamine receptor (Homo sapiens, UniProt P21917); test: Displacement of [3H]N-methylspiperone from human D4 receptor measured after 90 mins by microbeta scintillation counting method
Chain of D(4) dopamine receptor (P21917 whole entry): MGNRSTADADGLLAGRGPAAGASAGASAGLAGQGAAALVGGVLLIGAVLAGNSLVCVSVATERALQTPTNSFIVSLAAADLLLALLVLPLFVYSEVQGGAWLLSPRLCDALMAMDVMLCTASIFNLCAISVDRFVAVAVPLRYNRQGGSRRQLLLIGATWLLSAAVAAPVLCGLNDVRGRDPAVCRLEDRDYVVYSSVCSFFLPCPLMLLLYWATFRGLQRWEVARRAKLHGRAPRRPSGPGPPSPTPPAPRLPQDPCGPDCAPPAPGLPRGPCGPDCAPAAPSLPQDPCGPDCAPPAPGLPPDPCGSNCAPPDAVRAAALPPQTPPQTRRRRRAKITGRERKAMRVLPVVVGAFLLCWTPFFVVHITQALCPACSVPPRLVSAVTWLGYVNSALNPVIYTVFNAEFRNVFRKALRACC

[6] = Displacement of [3H]Muscimol from GABAA receptor in rat brain measured after 90 mins by microbeta scintillation counting method; format: tissue-based
Histamine H2 receptor = Histamine H2 receptor (Homo sapiens, UniProt P25021); test: Binding affinity to H2 receptor (unknown origin) expressed in HEKT cells measured after 90 mins by radioligand binding assay; format: cell-based
Chain of Histamine H2 receptor (P25021 whole entry): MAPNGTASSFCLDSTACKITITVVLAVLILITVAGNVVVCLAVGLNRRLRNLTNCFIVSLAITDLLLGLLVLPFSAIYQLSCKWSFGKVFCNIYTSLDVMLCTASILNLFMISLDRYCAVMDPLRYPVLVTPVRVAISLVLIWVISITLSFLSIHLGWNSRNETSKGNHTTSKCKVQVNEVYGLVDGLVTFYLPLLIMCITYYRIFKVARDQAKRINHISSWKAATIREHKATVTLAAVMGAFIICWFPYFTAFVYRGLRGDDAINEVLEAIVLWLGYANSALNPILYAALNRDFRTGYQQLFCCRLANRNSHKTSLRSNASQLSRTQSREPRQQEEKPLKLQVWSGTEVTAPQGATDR

[7] = target: Muscarinic acetylcholine receptor M2 (Homo sapiens, UniProt P08172); test: Binding affinity to human M2 receptor expressed in CHO cells measured after 90 mins by radioligand binding assay; format: cell-based
Chain of Muscarinic acetylcholine receptor M2 (P08172 whole entry): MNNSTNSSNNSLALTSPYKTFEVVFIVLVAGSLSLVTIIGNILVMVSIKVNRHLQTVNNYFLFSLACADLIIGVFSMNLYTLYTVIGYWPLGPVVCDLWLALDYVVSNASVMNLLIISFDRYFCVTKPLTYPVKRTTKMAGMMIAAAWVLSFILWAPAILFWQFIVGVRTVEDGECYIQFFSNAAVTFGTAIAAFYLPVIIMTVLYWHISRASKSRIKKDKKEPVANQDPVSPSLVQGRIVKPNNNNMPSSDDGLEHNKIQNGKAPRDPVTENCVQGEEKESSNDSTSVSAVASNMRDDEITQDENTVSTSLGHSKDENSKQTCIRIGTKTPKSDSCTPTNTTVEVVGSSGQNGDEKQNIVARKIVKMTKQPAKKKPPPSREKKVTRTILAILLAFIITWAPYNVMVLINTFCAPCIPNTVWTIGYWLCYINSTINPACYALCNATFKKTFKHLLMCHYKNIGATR

[8] = target: T3, Muscarinic acetylcholine receptor M3 (Homo sapiens, UniProt P20309); test: Binding affinity to human M3 receptor expressed in CHO cells measured after 90 mins by radioligand binding assay; format: cell-based
[9] = target: Sodium-dependent noradrenaline transporter (Homo sapiens, UniProt P23975); test: Displacement of [3H]Nisoxetine from human NET expressed in HEK cells measured after 90 mins by microbeta scintillation counting method; format: cell-based, HEK293
Chain of Sodium-dependent noradrenaline transporter (P23975 whole entry): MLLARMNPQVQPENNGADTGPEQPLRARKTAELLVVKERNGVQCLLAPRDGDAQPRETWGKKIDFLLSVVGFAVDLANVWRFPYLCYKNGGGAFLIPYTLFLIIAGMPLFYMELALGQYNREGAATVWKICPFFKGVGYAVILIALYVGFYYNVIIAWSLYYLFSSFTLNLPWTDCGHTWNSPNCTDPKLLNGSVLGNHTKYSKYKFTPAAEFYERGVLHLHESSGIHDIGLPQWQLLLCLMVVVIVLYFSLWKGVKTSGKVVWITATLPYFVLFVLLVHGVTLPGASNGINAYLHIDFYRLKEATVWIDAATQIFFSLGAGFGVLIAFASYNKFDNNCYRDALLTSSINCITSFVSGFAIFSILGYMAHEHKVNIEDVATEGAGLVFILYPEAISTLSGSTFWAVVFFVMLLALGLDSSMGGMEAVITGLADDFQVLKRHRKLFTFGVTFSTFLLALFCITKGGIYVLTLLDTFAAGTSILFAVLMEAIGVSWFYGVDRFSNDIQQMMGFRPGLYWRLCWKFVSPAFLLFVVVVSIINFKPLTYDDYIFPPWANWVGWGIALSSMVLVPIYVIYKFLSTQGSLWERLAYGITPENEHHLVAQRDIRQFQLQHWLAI

[10] = target: Sodium-dependent serotonin transporter (Homo sapiens, UniProt P31645); test: Displacement of [3H]Citalopram from human SERT expressed in HEK cells measured after 90 mins by microbeta scintillation counting method; format: cell-based, HEK293
Chain of Sodium-dependent serotonin transporter (P31645 whole entry): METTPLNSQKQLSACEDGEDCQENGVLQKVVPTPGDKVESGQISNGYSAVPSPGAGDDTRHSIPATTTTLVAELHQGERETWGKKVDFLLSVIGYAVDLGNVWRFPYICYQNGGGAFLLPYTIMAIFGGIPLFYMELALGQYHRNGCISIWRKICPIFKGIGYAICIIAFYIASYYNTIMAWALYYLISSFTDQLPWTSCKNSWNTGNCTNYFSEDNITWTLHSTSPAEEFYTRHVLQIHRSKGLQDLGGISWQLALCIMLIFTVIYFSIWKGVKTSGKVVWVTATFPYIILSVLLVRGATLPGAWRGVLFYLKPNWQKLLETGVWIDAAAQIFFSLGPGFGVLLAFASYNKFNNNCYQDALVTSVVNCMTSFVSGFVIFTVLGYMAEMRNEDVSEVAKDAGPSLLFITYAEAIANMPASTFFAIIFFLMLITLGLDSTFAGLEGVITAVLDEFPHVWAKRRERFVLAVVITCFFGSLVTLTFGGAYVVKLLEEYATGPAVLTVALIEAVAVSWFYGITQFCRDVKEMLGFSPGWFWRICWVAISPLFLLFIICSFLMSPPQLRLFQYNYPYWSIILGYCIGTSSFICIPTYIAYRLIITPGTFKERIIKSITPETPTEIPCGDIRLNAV

[11] = target: T3, Muscarinic acetylcholine receptor M3; test: Binding affinity to human M3 receptor expressed in CHO cells at 10 uM measured after 90 mins by radioligand binding assay relative to control; format: cell-based
[12] = target: Muscarinic acetylcholine receptor M5 (Homo sapiens) (UniProt P08912); test: Binding affinity to human M5 receptor expressed in CHO cells at 10 uM measured after 90 mins by radioligand binding assay relative to control; format: cell-based
[13] = target: 5-hydroxytryptamine receptor 2C (Homo sapiens) (UniProt P28335); conditions: HEK293, 10 uM
[14] = target: Sodium-dependent dopamine transporter (Homo sapiens, UniProt Q01959); conditions: HEK293, 10 uM
Histamine H3 receptor = Histamine H3 receptor (Homo sapiens, UniProt Q9Y5N1); conditions: HEK293, 10 uM
PC-12 [15] = conditions: Rattus norvegicus, 10 uM
[16] = target: T2, 5-hydroxytryptamine receptor 2B; conditions: HEK293, 10 uM
PC-12 [17] = test: Selectivity ratio of Ki for guinea pig sigma1 receptor to Ki for sigma2 receptor in rat PC12 cells; format: cell-based
[18] = target: Alpha-2A adrenergic receptor (Homo sapiens) (UniProt P08913); conditions: MDCK, 10 uM
[19] = target: Alpha-2B adrenergic receptor (Homo sapiens) (UniProt P18089); conditions: HEK-T, 10 uM
[20] = target: Alpha-2C adrenergic receptor (Homo sapiens) (UniProt P18825); conditions: MDCK, 10 uM
Chain of Alpha-2C adrenergic receptor (Homo sapiens) (P18825 whole entry): as the sequence (P18825 whole entry) above

[21] = target: T1, Kappa-type opioid receptor; conditions: HEKT, 10 uM
Mu-type opioid receptor = Mu-type opioid receptor (Homo sapiens, UniProt P35372); conditions: HEK293, 10 uM

T1 sequence (P41145 whole entry): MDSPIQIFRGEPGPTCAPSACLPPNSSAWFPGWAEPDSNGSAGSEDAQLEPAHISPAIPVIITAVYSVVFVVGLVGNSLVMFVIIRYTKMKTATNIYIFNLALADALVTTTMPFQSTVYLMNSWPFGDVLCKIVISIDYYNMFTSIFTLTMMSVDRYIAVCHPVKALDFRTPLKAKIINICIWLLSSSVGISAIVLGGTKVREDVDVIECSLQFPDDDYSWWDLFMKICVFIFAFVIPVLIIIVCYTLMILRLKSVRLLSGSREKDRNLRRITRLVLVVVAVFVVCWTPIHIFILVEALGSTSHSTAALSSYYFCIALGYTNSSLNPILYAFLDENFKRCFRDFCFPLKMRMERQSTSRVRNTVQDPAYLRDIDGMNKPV

SMILES	Ki [1] [µM]	Ki [2] [µM]	Ki [3] [µM]	Ki [4] [µM]	Ki [5] [µM]	Ki (D(2) dopamine receptor) [µM]	Ki (D(3) dopamine receptor) [µM]	Ki (D(4) dopamine receptor) [µM]	Ki [6] [µM]	Ki (Histamine H2 receptor) [µM]	Ki [7] [µM]	Ki [8] [µM]	Ki [9] [µM]	Ki [10] [µM]	inhibition (PC-12 [15]) [%]	other results
CN1CC[C@H]2CC(=O)[C@H](Cc3ccccc3)[C@H]3CCC[C@@H]1[C@H]23	> 10	0.0015 to 0.002	0.148	1.91	> 10	> 10	> 10	> 10	> 10	> 10	> 10	0.661	> 10	> 10	> 50	Activity [11]: > 50%; Activity [12]: > 50%; inhibition [13]: > 50%; inhibition [14]: > 50%; inhibition (Histamine H3 receptor): > 50%; inhibition [16]: > 50%
CCCN1CC[C@H]2c3cc4ccc(C(F)(F)F)cc4nc3[C@H](CC)[C@H]3CCC[C@@H]1[C@@H]32	0.416	0.423	0.015	> 10	1.04	> 10	> 10	> 10	> 10	> 10	> 10	> 10	> 10	> 10	> 50	Ratio Ki (PC-12 [17]): 28; inhibition [18]: > 50%; inhibition [19]: > 50%; inhibition [20]: > 50%; inhibition [21]: > 50%; inhibition (Mu-type opioid receptor): > 50%
